Assay results published in the supplement of paper PMC10307832.

How the values were obtained:
Assay in all cases: relative viability (nuclei count vs DMSO), 5 days (fraction); higher = more cells survive
[1] = compound: COc1cc(-c2nn([C@H]3CC[C@H](N4CCN(C(C)=O)CC4)CC3)c3ncnc(N)c23)ccc1NC(=O)c1cc2ccccc2n1C + CS(=O)(=O)CCNCc1ccc(-c2ccc3ncnc(Nc4ccc(OCc5cccc(F)c5)c(Cl)c4)c3c2)o1 [Lapatinib] (partner 2 µM)
Summary of the method: (§1)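 Relative viability divides the nuclei count in treated wells by that in vehicle wells. Lung cancer cell lines were seeded in 1536-well plates, dosed by pin tool the next day, and fixed and stained after 5 days in one step with final 0.05% Triton X-100, 1% formaldehyde and 1 ug/ml Hoechst. Dosing was a single drug or a fixed anchor-drug dose plus five library-drug doses (not always all listed) in √10 steps, and values are medians of duplicate plates imaged at 4×.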

Midostaurin + Alpelisib = compound: CO[C@@H]1[C@H](N(C)C(=O)c2ccccc2)C[C@H]2O[C@]1(C)n1c3ccccc3c3c4c(c5c6ccccc6n2c5c31)C(=O)NC4 [Midostaurin] + Cc1nc(NC(=O)N2CCC[C@H]2C(N)=O)sc1-c1ccnc(C(C)(C)C(F)(F)F)c1 [Alpelisib] (partner 2 µM)
Summary of the method: as §1

[2] = compound: COc1cc(-c2nn([C@H]3CC[C@H](N4CCN(C(C)=O)CC4)CC3)c3ncnc(N)c23)ccc1NC(=O)c1cc2ccccc2n1C + Nc1nc2[nH]cc(CCc3ccc(C(=O)N[C@@H](CCC(=O)O)C(=O)O)cc3)c2c(=O)[nH]1 [Pemetrexed] (partner 0.2 µM)
Summary of the method: as §1

Midostaurin + Linsitinib = compound: CO[C@@H]1[C@H](N(C)C(=O)c2ccccc2)C[C@H]2O[C@]1(C)n1c3ccccc3c3c4c(c5c6ccccc6n2c5c31)C(=O)NC4 [Midostaurin] + C[C@]1(O)C[C@@H](c2nc(-c3ccc4ccc(-c5ccccc5)nc4c3)c3c(N)nccn32)C1 [Linsitinib] (partner 1 µM)
Summary of the method: as §1

Midostaurin + Pemetrexed = compound: CO[C@@H]1[C@H](N(C)C(=O)c2ccccc2)C[C@H]2O[C@]1(C)n1c3ccccc3c3c4c(c5c6ccccc6n2c5c31)C(=O)NC4 [Midostaurin] + Nc1nc2[nH]cc(CCc3ccc(C(=O)N[C@@H](CCC(=O)O)C(=O)O)cc3)c2c(=O)[nH]1 [Pemetrexed] (partner 0.2 µM)
Summary of the method: as §1

| Cell Line | relative viability ([1]; first compound 0.0128 µM) | relative viability ([1]; first compound 0.04048 µM) | relative viability ([1]; first compound 0.128 µM) | relative viability ([1]; first compound 1.28 µM) | relative viability (Midostaurin + Alpelisib; first compound 0.01 µM) | relative viability (Midostaurin + Alpelisib; first compound 0.03162 µM) | relative viability (Midostaurin + Alpelisib; first compound 0.1 µM) | relative viability (Midostaurin + Alpelisib; first compound 0.3162 µM) | relative viability ([2]; first compound 0.0128 µM) | relative viability ([2]; first compound 0.04048 µM) | relative viability ([2]; first compound 0.128 µM) | relative viability ([2]; first compound 1.28 µM) | relative viability (Midostaurin + Linsitinib; first compound 0.01 µM) | relative viability (Midostaurin + Linsitinib; first compound 0.03162 µM) | relative viability (Midostaurin + Linsitinib; first compound 0.1 µM) | relative viability (Midostaurin + Linsitinib; first compound 0.3162 µM) | relative viability (Midostaurin + Pemetrexed; first compound 0.01 µM) | relative viability (Midostaurin + Pemetrexed; first compound 0.03162 µM) | relative viability (Midostaurin + Pemetrexed; first compound 0.1 µM) | relative viability (Midostaurin + Pemetrexed; first compound 0.3162 µM) |
| --- | --- | --- | --- | --- | --- | --- | --- | --- | --- | --- | --- | --- | --- | --- | --- | --- | --- | --- | --- | --- |
| NCI-H1355 | 1.11 | 0.928 | 0.952 | 0.897 | 0.827 | 0.788 | 0.748 | 0.814 | 1.18 | 1.06 | 1.01 | 0.967 | 0.755 | 0.83 | 0.865 | 0.838 | 1.04 | 1.07 | 1.14 | 1.09 |
| H3255 | 0.294 | 0.27 | 0.238 | 0.176 | 0.724 | 0.7 | 0.698 | 0.7 | 0.628 | 0.567 | 0.578 | 0.489 | 0.948 | 0.875 | 0.953 | 1 | 0.571 | 0.494 | 0.529 | 0.579 |
| NCI-H1993 | 0.853 | 0.811 | 0.807 | 0.812 | 0.714 | 0.657 | 0.675 | 0.643 | 0.684 | 0.543 | 0.598 | 0.599 | 0.782 | 0.712 | 0.655 | 0.669 | 0.627 | 0.542 | 0.597 | 0.51 |
| NCI-H1734 | 1.12 | 1.04 | 0.959 | 0.871 | 0.656 | 0.618 | 0.69 | 0.742 | 0.432 | 0.391 | 0.406 | 0.432 | 0.832 | 0.803 | 0.728 | 0.928 | 0.421 | 0.405 | 0.446 | 0.456 |
| HOP-62 | 1.09 | 0.891 | 0.865 | 1.03 | 0.957 | 0.636 | 0.913 | 1.32 | 0.382 | 0.332 | 0.289 | 0.387 | 1.1 | 0.911 | 0.938 | 0.995 | 0.332 | 0.278 | 0.326 | 0.41 |
| LOU-NH91 | 0.756 | 0.689 | 0.747 | 0.679 | 0.776 | 0.673 | 0.724 | 0.756 | 0.395 | 0.348 | 0.363 | 0.433 | 1.05 | 0.885 | 0.958 | 0.953 | 0.317 | 0.399 | 0.37 | 0.397 |
| NCI-H2228 | 1.37 | 0.958 | 1.14 | 0.861 | 0.891 | 0.762 | 0.7 | 0.695 | 0.362 | 0.348 | 0.31 | 0.322 | 0.731 | 0.879 | 0.828 | 0.679 | 0.35 | 0.343 | 0.313 | 0.334 |
| PC-14 | 0.308 | 0.371 | 0.297 | 0.208 | 0.827 | 0.896 | 0.891 | 0.785 | 0.136 | 0.118 | 0.136 | 0.133 | 0.995 | 0.943 | 0.996 | 0.975 | 0.123 | 0.125 | 0.118 | 0.111 |
| NCI-H1437 | 0.901 | 0.91 | 0.77 | 0.764 | 1.06 | 0.995 | 0.96 | 0.986 | 0.351 | 0.339 | 0.287 | 0.303 | 1.2 | 0.992 | 1.12 | 1.05 | 0.311 | 0.3 | 0.332 | 0.323 |
| NCI-H460 | 1.05 | 0.994 | 0.964 | 0.741 | 0.47 | 0.433 | 0.371 | 0.365 | 0.0604 | 0.0561 | 0.0601 | 0.0597 | 0.739 | 0.732 | 0.75 | 0.694 | 0.0611 | 0.0661 | 0.0666 | 0.0626 |
| NCI-H1666 | 0.712 | 0.664 | 0.581 | 0.509 | 1.06 | 0.788 | 0.838 | 0.732 | 0.881 | 0.803 | 0.84 | 0.847 | 0.897 | 0.916 | 0.77 | 0.822 | 0.876 | 0.812 | 0.74 | 0.722 |
| NCI-H1651 | 0.961 | 1.03 | 0.621 | 0.74 | 1.17 | 0.92 | 0.935 | 0.902 | 0.57 | 0.617 | 0.57 | 0.438 | 1.06 | 0.851 | 1.03 | 0.957 | 0.626 | 0.53 | 0.618 | 0.675 |
| NCI-H1755 | 1.17 | 0.967 | 0.974 | 1.05 | 0.921 | 0.912 | 0.75 | 0.694 | 0.438 | 0.43 | 0.577 | 0.57 | 0.97 | 0.923 | 0.865 | 0.692 | 0.447 | 0.469 | 0.42 | 0.431 |
| NCI-H661 | 0.545 | 0.532 | 0.469 | 0.319 | 0.684 | 0.601 | 0.758 | 0.661 | 0.939 | 0.991 | 0.93 | 0.968 | 0.56 | 0.638 | 0.532 | 0.439 | 0.915 | 0.82 | 0.902 | 0.904 |
| HARA | 0.888 | 0.858 | 0.563 | 0.813 | 0.794 | 0.795 | 0.724 | 0.864 | 0.213 | 0.233 | 0.216 | 0.184 | 0.936 | 0.979 | 0.877 | 0.969 | 0.225 | 0.309 | 0.222 | 0.239 |
| NCI-H596 | 0.933 | 1.2 | 0.933 | 0.842 | 0.587 | 0.546 | 0.508 | 0.432 | 0.494 | 0.536 | 0.517 | 0.431 | 1.09 | 1.17 | 1.08 | 1.15 | 0.528 | 0.551 | 0.488 | 0.551 |
| NCI-H1563 | 1.01 | 0.961 | 0.822 | 0.681 | 1.09 | 1.07 | 0.907 | 0.78 | 0.755 | 0.778 | 0.853 | 0.582 | 1.16 | 1.2 | 1.03 | 1.11 | 0.681 | 0.748 | 0.749 | 0.809 |
| NCI-H23 | 1.28 | 1.03 | 1.07 | 1.09 | 0.739 | 0.517 | 0.339 | 0.602 | 0.66 | 0.459 | 0.688 | 0.618 | 0.53 | 0.698 | 0.362 | 0.508 | 0.635 | 0.671 | 0.533 | 0.458 |
| LCLC-97TM1 | 0.922 | 0.553 | 0.9 | 1.08 | 0.251 | – | 0.185 | 0.211 | 0.182 | 0.185 | 0.171 | 0.19 | 0.193 | – | 0.145 | 0.184 | 0.164 | 0.137 | 0.193 | 0.166 |
| EPLC-272H | 0.815 | 0.891 | 0.997 | 0.86 | 0.74 | 0.909 | 1.05 | 1.05 | 0.406 | 0.338 | 0.287 | 0.253 | 1.08 | 1.11 | 1.17 | 1.22 | 0.229 | 0.357 | 0.256 | 0.256 |
| NCI-H1915 | 1.08 | 1.03 | 0.992 | 1.01 | 1.04 | 1.02 | 1.06 | 1.06 | 0.536 | 0.452 | 0.488 | 0.5 | 1.05 | 1.06 | 1.09 | 1.11 | 0.46 | 0.472 | 0.506 | 0.477 |
| NCI-H2405 | 1.13 | 0.554 | 0.955 | 0.446 | 0.87 | 0.903 | – | 0.573 | 1.02 | 0.698 | 0.991 | 0.426 | 0.965 | 1.01 | – | 0.853 | 1.11 | 1 | 0.974 | 1.27 |
| NCI-H322M | 0.627 | 0.679 | 0.621 | 0.474 | 0.836 | 0.686 | 0.882 | 0.807 | 0.603 | 0.643 | 0.604 | 0.538 | 0.993 | 0.945 | 1.08 | 1.08 | 0.692 | 0.527 | 0.677 | 0.677 |
| NCI-H1395 | 0.939 | 1.09 | 0.881 | 0.782 | 1.09 | 1.08 | 1.3 | 1.22 | 0.819 | 0.81 | 0.763 | 0.59 | 1.06 | 1.22 | 1.01 | 1.02 | 0.791 | 1.09 | 0.748 | 0.846 |
| NCI-H358 | 0.455 | 0.391 | 0.335 | 0.27 | 0.891 | 0.719 | 0.954 | 0.768 | 0.188 | 0.187 | 0.173 | 0.166 | 0.818 | 0.607 | 0.813 | 0.599 | 0.158 | 0.167 | 0.173 | 0.159 |
| NCI-H838 | 1.06 | 1.02 | 0.913 | 0.629 | 1.02 | 0.772 | 0.865 | 0.407 | 0.254 | 0.262 | 0.224 | 0.221 | 1.01 | 0.828 | 0.739 | 0.367 | 0.238 | 0.236 | 0.208 | 0.216 |
| CAL-12T | 0.615 | 0.686 | 0.659 | 0.384 | 1.28 | 0.765 | 0.816 | 1.09 | 1.39 | 1.21 | 1.15 | 1.12 | 0.721 | 0.672 | 0.808 | 0.676 | 1.19 | 1.19 | 1.28 | 0.765 |
